Assay: Apparent permeability across apical to basolateral side in human Caco-2 cells measured after 60 to 120 mins
Assay type: ADME, cell-based
Conditions: time 60-120 min

permeability: Permeable
Structure (SMILES): CC(C)CN1CC(=O)N[C@@H](Cc2ccccc2)C(=O)NCCC[C@@H](C)C(=O)N[C@@H](C)C1=O

Reference: ChEMBL document CHEMBL5036305, “Modulation of the Passive Permeability of Semipeptidic Macrocycles: N- and C-Methylations Fine-Tune Conformation and Properties” (J Med Chem, 2021)
